# Measured values as given in PubChem BioAssay (NCI).
# Several values for one entry are separate records, joined by “and”; a condition that tells them apart may be missing. Identical values can stand only once.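 Step 1: Grow cells in 96-well plates. Step 2: Expose to compound for 48 hours at 5 concentrations. Step 3: Interpolate endpoints linearly; if unreached, use highest concentration. At the GI50, growth is halved. TGI denotes the concentration required for complete inhibition of growth.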
# What was measured:
# Assay in all cases: NCI anticancer screen, dose series, 48 h
# T-47D breast = system: T-47D breast
# DU-145 prostate = system: DU-145 prostate
# MCF7 breast = system: MCF7 breast
# ACHN renal = system: ACHN renal
# BT-549 breast = system: BT-549 breast
# HT29 colon = system: HT29 colon
# K-562 leukemia = system: K-562 leukemia
# M14 melanoma = system: M14 melanoma
# OVCAR-4 ovarian = system: OVCAR-4 ovarian
# MDA-MB-231 breast = system: MDA-MB-231 breast
# UO-31 renal = system: UO-31 renal
# SK-MEL-28 melanoma = system: SK-MEL-28 melanoma
# HOP-62 NSCLC = system: HOP-62 NSCLC
# UACC-62 melanoma = system: UACC-62 melanoma
# MDA-MB-435 = system: MDA-MB-435
# OVCAR-8 ovarian = system: OVCAR-8 ovarian
# HS 578T breast = system: HS 578T breast
# SF-539 CNS = system: SF-539 CNS
# SNB-75 CNS = system: SNB-75 CNS
# CCRF-CEM leukemia = system: CCRF-CEM leukemia
# LOX IMVI melanoma = system: LOX IMVI melanoma
# OVCAR-5 ovarian = system: OVCAR-5 ovarian
# KM12 colon = system: KM12 colon
# PC-3 prostate = system: PC-3 prostate
# NCI-H23 lung = system: NCI-H23 lung
# CAKI-1 renal = system: CAKI-1 renal
# SNB-19 CNS = system: SNB-19 CNS
# HL-60(TB) leukemia = system: HL-60(TB) leukemia
# A549 NSCLC = system: A549 NSCLC
# HOP-92 NSCLC = system: HOP-92 NSCLC
# SR leukemia = system: SR leukemia
# SK-OV-3 ovarian = system: SK-OV-3 ovarian
# SW-620 colon = system: SW-620 colon
# NCI-H226 lung = system: NCI-H226 lung
# UACC-257 melanoma = system: UACC-257 melanoma
# MALME-3M melanoma = system: MALME-3M melanoma
# HCT-116 colon = system: HCT-116 colon
# SK-MEL-5 melanoma = system: SK-MEL-5 melanoma
# TK-10 renal = system: TK-10 renal
# RPMI-8226 leukemia = system: RPMI-8226 leukemia
# HCC-2998 colon = system: HCC-2998 colon
# SN12C renal = system: SN12C renal
# MOLT-4 leukemia = system: MOLT-4 leukemia
# EKVX NSCLC = system: EKVX NSCLC
# U251 CNS = system: U251 CNS
# 786-0 renal = system: 786-0 renal
# COLO 205 colon = system: COLO 205 colon
# NCI-H522 lung = system: NCI-H522 lung
# RXF 393 renal = system: RXF 393 renal
# A498 renal = system: A498 renal
# SF-295 CNS = system: SF-295 CNS
# IGROV1 ovarian = system: IGROV1 ovarian
# SF-268 CNS = system: SF-268 CNS
# SK-MEL-2 melanoma = system: SK-MEL-2 melanoma
# OVCAR-3 ovarian = system: OVCAR-3 ovarian
# NCI/ADR-RES ovarian = system: NCI/ADR-RES ovarian
# HCT-15 colon = system: HCT-15 colon
# NCI-H460 lung = system: NCI-H460 lung
compound,measurement,setting,value
CC(C)n1nc(-c2ccc3oc(N)nc3c2)c2c(N)ncnc21,GI50,T-47D breast,< 10 nM
same,TGI,T-47D breast,16 nM and 15.5 nM
same,GI50,DU-145 prostate,20.3 nM and 20.8 nM
same,TGI,DU-145 prostate,11900 nM and 6630 nM
same,GI50,MCF7 breast,< 10 nM
same,TGI,MCF7 breast,2870 nM and 4120 nM
same,GI50,ACHN renal,10.5 nM and 13 nM
same,TGI,ACHN renal,1140 nM and 820 nM
same,GI50,BT-549 breast,< 10 nM
same,GI50,HT29 colon,27.2 nM
same,TGI,HT29 colon,10800 nM and 5320 nM
same,GI50,K-562 leukemia,43.1 nM and 37.6 nM
same,TGI,K-562 leukemia,> 100000 nM
same,GI50,M14 melanoma,< 10 nM
same,TGI,M14 melanoma,522 nM and 678 nM
same,GI50,OVCAR-4 ovarian,< 10 nM
same,TGI,OVCAR-4 ovarian,77 nM and 56.9 nM
same,GI50,MDA-MB-231 breast,16.5 nM and 21.1 nM
same,TGI,MDA-MB-231 breast,1970 nM and 1700 nM
same,GI50,UO-31 renal,< 10 nM
same,TGI,UO-31 renal,40.2 nM and 89.8 nM
same,GI50,SK-MEL-28 melanoma,< 10.8 nM
same,TGI,SK-MEL-28 melanoma,189 nM
same,GI50,HOP-62 NSCLC,19.8 nM and 21.2 nM
same,TGI,HOP-62 NSCLC,793 nM and 435 nM
same,GI50,UACC-62 melanoma,< 10 nM
same,TGI,UACC-62 melanoma,31.7 nM and 49 nM
same,GI50,MDA-MB-435,< 12.5 nM and 13.8 nM
same,TGI,MDA-MB-435,403 nM and 110 nM
same,GI50,OVCAR-8 ovarian,24.6 nM and 21.8 nM
same,TGI,OVCAR-8 ovarian,1240 nM and 506 nM
same,GI50,HS 578T breast,< 10 nM
same,TGI,HS 578T breast,32.3 nM and 51.7 nM
same,GI50,SF-539 CNS,18.4 nM and 17.5 nM
same,TGI,SF-539 CNS,90.2 nM and 113 nM
same,GI50,SNB-75 CNS,< 10 nM
same,TGI,SNB-75 CNS,53.2 nM and 21.1 nM
same,GI50,CCRF-CEM leukemia,26.5 nM and 46.7 nM
same,TGI,CCRF-CEM leukemia,> 45600 nM
same,GI50,LOX IMVI melanoma,12.7 nM and 17.4 nM
same,TGI,LOX IMVI melanoma,1330 nM and 1640 nM
same,GI50,OVCAR-5 ovarian,13.2 nM and 16.1 nM
same,TGI,OVCAR-5 ovarian,1400 nM and 2080 nM
same,GI50,KM12 colon,22.2 nM and 17.9 nM
same,TGI,KM12 colon,5010 nM and 2240 nM
same,GI50,PC-3 prostate,< 10 nM
same,TGI,PC-3 prostate,3940 nM and 2570 nM
same,GI50,NCI-H23 lung,26.8 nM and 17.6 nM
same,TGI,NCI-H23 lung,8160 nM and 2390 nM
same,GI50,CAKI-1 renal,< 15.7 nM and 16.1 nM
same,TGI,CAKI-1 renal,725 nM and 265 nM
same,GI50,SNB-19 CNS,33.6 nM and 27 nM
same,TGI,SNB-19 CNS,1940 nM and 1330 nM
same,GI50,HL-60(TB) leukemia,86.9 nM and 168 nM
same,TGI,HL-60(TB) leukemia,12300 nM and 11200 nM
same,GI50,A549 NSCLC,15.6 nM and 19.1 nM
same,TGI,A549 NSCLC,2880 nM and 1030 nM
same,GI50,HOP-92 NSCLC,< 10 nM
same,TGI,HOP-92 NSCLC,< 10 nM
same,GI50,SR leukemia,28.4 nM and < 11.2 nM
same,TGI,SR leukemia,3840 nM
same,GI50,SK-OV-3 ovarian,< 10 nM
same,TGI,SK-OV-3 ovarian,49 nM and 54.8 nM
same,GI50,SW-620 colon,37 nM and 37.9 nM
same,TGI,SW-620 colon,21100 nM and 12600 nM
same,GI50,NCI-H226 lung,< 10 nM
same,TGI,NCI-H226 lung,371 nM and 231 nM
same,GI50,UACC-257 melanoma,< 12.3 nM and 13.7 nM
same,TGI,UACC-257 melanoma,145 nM and 121 nM
same,GI50,MALME-3M melanoma,< 10 nM
same,TGI,MALME-3M melanoma,< 10 nM and 22 nM
same,GI50,HCT-116 colon,38.7 nM and 36.1 nM
same,TGI,HCT-116 colon,15000 nM
same,GI50,SK-MEL-5 melanoma,17.1 nM and < 11.4 nM
same,TGI,SK-MEL-5 melanoma,143 nM and 86.5 nM
same,GI50,TK-10 renal,< 11.3 nM and 11.2 nM
same,TGI,TK-10 renal,240 nM and 89.7 nM
same,GI50,RPMI-8226 leukemia,< 10 nM
same,TGI,RPMI-8226 leukemia,1100 nM and 3680 nM
same,GI50,HCC-2998 colon,24 nM and 25.9 nM
same,TGI,HCC-2998 colon,11500 nM and 11900 nM
same,GI50,SN12C renal,< 11.4 nM and 11.3 nM
same,TGI,SN12C renal,2690 nM and 8690 nM
same,GI50,MOLT-4 leukemia,32.5 nM and 43.8 nM
same,TGI,MOLT-4 leukemia,5900 nM and 9490 nM
same,GI50,EKVX NSCLC,15.9 nM
same,TGI,EKVX NSCLC,225 nM
same,GI50,U251 CNS,22.9 nM and 25.5 nM
same,TGI,U251 CNS,10200 nM and 2440 nM
same,GI50,786-0 renal,14.6 nM and 26.6 nM
same,TGI,786-0 renal,400 nM and 1410 nM
same,GI50,COLO 205 colon,< 10 nM and 14.4 nM
same,TGI,COLO 205 colon,2210 nM and 1880 nM
same,GI50,NCI-H522 lung,< 10 nM
same,TGI,NCI-H522 lung,15300 nM and 1760 nM
same,GI50,RXF 393 renal,< 10 nM
same,TGI,RXF 393 renal,43 nM and 53.3 nM
same,GI50,A498 renal,< 10 nM
same,TGI,A498 renal,< 10 nM
same,GI50,SF-295 CNS,< 10 nM and 10.2 nM
same,TGI,SF-295 CNS,47.2 nM and 77.3 nM
same,GI50,IGROV1 ovarian,< 10 nM
same,TGI,IGROV1 ovarian,55.4 nM and 277 nM
same,GI50,SF-268 CNS,15.1 nM and 15.4 nM
same,TGI,SF-268 CNS,2880 nM and 1850 nM
same,GI50,SK-MEL-2 melanoma,19.4 nM and 15.7 nM
same,TGI,SK-MEL-2 melanoma,581 nM and 113 nM
same,GI50,OVCAR-3 ovarian,< 13 nM and 12 nM
same,TGI,OVCAR-3 ovarian,411 nM and 759 nM
same,GI50,NCI/ADR-RES ovarian,25.1 nM and 24.5 nM
same,TGI,NCI/ADR-RES ovarian,580 nM and 830 nM
same,GI50,HCT-15 colon,12.6 nM and 16.4 nM
same,TGI,HCT-15 colon,11300 nM and > 35200 nM
same,GI50,NCI-H460 lung,< 10 nM
same,TGI,NCI-H460 lung,36300 nM and 16800 nM
